In brackets after ≈: the same amount, converted by molar mass. Read-outs that look alike come from different tables or passages of the source.
Legend:
[1] = Caco-2 Papp determination; settings: human, Caco-2, pH 7.4
[2] = In vivo mouse PK; settings: for Vd / clearance / bioavailability: female, NMRI, plasma; for Vd / clearance: iv; for clearance: Cl; for bioavailability: po, 0.5 mg/kg
[3] = Thermodynamic solubility determination; type: physicochemical; settings: phosphate buffer, pH 7.4, 37 °C, read-out: Solubility Therm.

Row | SMILES | Papp A→B at 2 h, 1 μM [1] | efflux ratio at 2 h, 1 μM [1] | Vd ([2]; 0.2 mg/kg) | clearance ([2]; 0.2 mg/kg, 0.2 mg/kg iv) | solubility at 24 h ([3]; pH 7.4, free base) | bioavailability [2] | solubility at 24 h ([3]; pH 7.4, TFA salt) | Cl ([2]; 0.2 mg/kg iv, 0.2 mg/kg)
1 | CN1c2cc(-c3cncc(Cl)c3N3CCC4(CCNC4=O)CC3)ccc2CS1(=O)=O [Compound 24] | 33.8 ×10⁻⁶ cm/s | 11 | – | – | – | – | – | –
2 | CC(C)(O)Cn1cc(-c2ccc(-c3cncc(Cl)c3N3CCC4(CCNC4=O)CC3)cc2)cn1 [Compound 18] | 32 ×10⁻⁶ cm/s | 26.1 | 0.8 L/kg | 16.5 mL/min/kg | 33 µg/mL (≈ 68.7 µM) | – | – | –
3 | CC(C)(O)Cn1cc(-c2ccc(-c3cnc(N)c(Cl)c3N3CCC4(CCNC4=O)CC3)cc2)cn1 [Compound 86, 8-(2-Amino-3-chloro-5-(4-(1-(2-hydroxy-2-methylpropyl)-1H-pyrazol-4-yl)phenyl)pyridin-4-yl)-2,8-diazaspiro[4.5]decan-1-one] | 25.4 ×10⁻⁶ cm/s | 42.7 | 1.22 L/kg | 17.8 mL/min/kg | – | 7% | – | –
4 | CN1c2ccc(-c3cncc(Cl)c3N3CCC4(CC3)NC(=O)NC4=O)cc2CS1(=O)=O [Compound 46] | 3.3 ×10⁻⁶ cm/s | 126 | – | – | – | – | – | –
5 | Cn1ncc2cc(-c3cnc(N)c(Cl)c3N3CCC4(CC3)CNC(=O)O4)ccc21 [Compound 110] | 33.4 ×10⁻⁶ cm/s | – | – | – | – | – | – | –
6 | Cn1cc(-c2ccc(-c3cnc(N)c(Cl)c3N3CCC4(CC3)CNC(=O)O4)cc2)cn1 [Compound 89] | 48.3 ×10⁻⁶ cm/s | – | 1.4 L/kg | 22.5 mL/min/kg | – | 35% | 5 µg/mL | –
7 | Cn1cc(-c2ccc(-c3cncc(Cl)c3N3CCC4(CC3)NC(=O)NC4=O)cc2)cn1 [Compound 45] | 15.9 ×10⁻⁶ cm/s | – | 1.26 L/kg | 26 mL/min/kg | – | 11% | 39 µg/mL | –
8 | Cn1cc(-c2ccc(-c3cnc(N)c(C(F)(F)F)c3N3CCC4(CCNC4=O)CC3)cc2)cn1 [Compound 94] | 20.7 ×10⁻⁶ cm/s | – | – | – | – | – | – | –
9 | O=C1NCCC12CCN(c1c(Cl)cncc1-c1ccc(-c3cnn(CCN4CCCC4)c3)cc1)CC2 [Compound 20] | 30.4 ×10⁻⁶ cm/s | 5.3 | – | – | – | – | – | –
10 | CN1c2ccc(-c3cncc(Cl)c3N3CCC4(CC3)CNC(=O)O4)cc2CS1(=O)=O [Compound 42, 8-(3-Chloro-5-(1-methyl-2,2-dioxido-1,3-dihydrobenzo[c]isothiazol-5-yl)pyridin-4-yl)-1-oxa-3,8-diazaspiro[4.5]decan-2-one] | 16.6 ×10⁻⁶ cm/s | – | 1.34 L/kg | 47.7 mL/min/kg | – | – | 53 µg/mL | –
11 | CN1c2ccc(-c3cncc(F)c3N3CCC4(CC3)CNC(=O)O4)cc2CS1(=O)=O [Compound 63, 8-(3-Fluoro-5-(1-methyl-2,2-dioxido-1,3-dihydrobenzo[c]isothiazol-5-yl)pyridin-4-yl)-1-oxa-3,8-diazaspiro[4.5]decan-2-one] | 16 ×10⁻⁶ cm/s | 6.5 | 2.67 L/kg | 87.5 mL/min/kg | – | 27% | – | –
12 | Cn1cc(-c2ccc(-c3cnc(N)c(C(F)(F)F)c3N3CCC4(CC3)CNC(=O)O4)cc2)cn1 [Compound 95, 8-(2-Amino-5-(4-(1-methyl-1H-pyrazol-4-yl)phenyl)-3-(trifluoromethyl)pyridin-4-yl)-1-oxa-3,8-diazaspiro[4.5]decan-2-one 2,2,2-Trifluoroacetate] | 29.1 ×10⁻⁶ cm/s | – | 1.93 L/kg | 25 mL/min/kg | – | 42% | 8 µg/mL | –
13 | CN1CNC(=O)C12CCN(c1c(Cl)cncc1-c1ccc(-c3cnn(C)c3)cc1)CC2 [Compound 104] | 30.6 ×10⁻⁶ cm/s | – | – | – | – | – | – | –
14 | CN1c2ccc(-c3cnc(N)c(Cl)c3N3CCC4(CC3)CNC(=O)O4)cc2CS1(=O)=O [Compound 90] | 10.3 ×10⁻⁶ cm/s | – | 1.81 L/kg | 36 mL/min/kg | – | 9% | 2 µg/mL | –
15 | Cn1cc(-c2ccc(-c3cncc(C(F)(F)F)c3N3CCC4(CC3)CNC(=O)O4)cc2)cn1 [Compound 72, 8-(3-(4-(1-Methyl-1H-pyrazol-4-yl)phenyl)-5-(trifluoromethyl)pyridin-4-yl)-1-oxa-3,8-diazaspiro[4.5]decan-2-one 2,2,2-Trifluoroacetate] | 47.4 ×10⁻⁶ cm/s | – | 2.3 L/kg | 30.3 mL/min/kg | – | 48% | 35 µg/mL | –
16 | CN(C)CCn1cc(-c2ccc(-c3cncc(Cl)c3N3CCC4(CCNC4=O)CC3)cc2)cn1 [Compound 19] | 25.4 ×10⁻⁶ cm/s | 12.4 | – | – | – | – | – | –
17 | Cn1cc(-c2ccc(-c3cnc(N)c(Cl)c3N3CCC4(CC3)NC(=O)NC4=O)cc2)cn1 [Compound 91] | 9.6 ×10⁻⁶ cm/s | – | – | – | – | – | < 1 µg/mL | –
18 | O=C1NCCC12CCN(c1c(Cl)cncc1-c1ccc(-c3cnn(CCO)c3)cc1)CC2 [Compound 17] | 22.7 ×10⁻⁶ cm/s | 19.5 | 1.61 L/kg | 47.2 mL/min/kg | – | 7% | 112 µg/mL | –
19 | CN(C)CCC1(C#N)CCN(c2c(Cl)cncc2-c2ccc3c(c2)CS(=O)(=O)N3C)CC1 [Compound 51] | 35.3 ×10⁻⁶ cm/s | – | – | – | – | – | – | –
20 | Cn1cc(-c2ccc(-c3cncc(Cl)c3N3CCC4(CC3)CNC(=O)O4)cc2)cn1 [Compound 41] | 30.6 ×10⁻⁶ cm/s | 2.4 | – | – | – | – | – | –

Now from value to molecule:

Row | Papp A→B at 2 h, 1 μM [1] | efflux ratio at 2 h, 1 μM [1] | Vd ([2]; 0.2 mg/kg) | clearance ([2]; 0.2 mg/kg, 0.2 mg/kg iv) | solubility at 24 h ([3]; pH 7.4, free base) | bioavailability [2] | solubility at 24 h ([3]; pH 7.4, TFA salt) | Cl ([2]; 0.2 mg/kg iv, 0.2 mg/kg) | SMILES
21 | 23.9 ×10⁻⁶ cm/s | 29.5 | 0.86 L/kg | 21.3 mL/min/kg | – | 37% | – | – | CN1c2ccc(-c3cnc(N)c(F)c3N3CCC4(CCNC4=O)CC3)cc2CS1(=O)=O [Compound 92, 8-(2-Amino-3-fluoro-5-(1-methyl-2,2-dioxido-1,3-dihydrobenzo[c]isothiazol-5-yl)pyridin-4-yl)-2,8-diazaspiro[4.5]decan-1-one]
22 | 37 ×10⁻⁶ cm/s | 4.9 | 0.74 L/kg | 11.2 mL/min/kg | – | 61% | – | – | Cn1cc(-c2ccc(-c3cnc(N)c(Cl)c3N3CCC4(CCNC4=O)CC3)cc2)cn1 [Compound 85]
23 | 0.03 ×10⁻⁶ cm/s | – | 1.21 L/kg | 29.2 mL/min/kg | – | 5% | 540 µg/mL | – | Nc1n[nH]c2cc(-c3cncc(Cl)c3N3CCC4(CCNC4=O)CC3)ccc12 [Compound 25, 8-(3-(3-Amino-1H-indazol-6-yl)-5-chloropyridin-4-yl)-2,8-diazaspiro[4.5]decan-1-one]
24 | 18.8 ×10⁻⁶ cm/s | – | 6.41 L/kg | 278 mL/min/kg | – | 12% | 33 µg/mL | – | Cc1nc(-c2ccc(-c3cncc(Cl)c3N3CCC4(CCNC4=O)CC3)cc2)cn1C [Compound 21]
25 | 19.8 ×10⁻⁶ cm/s | – | 1.96 L/kg | 69.2 mL/min/kg | – | 9% | 613 µg/mL | – | CC1=NC2(CCN(c3c(Cl)cncc3-c3ccc4c(c3)CS(=O)(=O)N4C)CC2)C(=O)N1 [Compound 47]
26 | 32.9 ×10⁻⁶ cm/s | 3 | 1.86 L/kg | 132 mL/min/kg | – | 5% | – | 132 mL/min/kg | CN1c2ccc(-c3cncc(F)c3N3CCC4(CCNC4=O)CC3)cc2CS1(=O)=O [Compound 61, 8-(3-Fluoro-5-(1-methyl-2,2-dioxido-1,3-dihydrobenzo[c]isothiazol-5-yl)pyridin-4-yl)-2,8-diazaspiro[4.5]decan-1-one]
27 | 19.3 ×10⁻⁶ cm/s | 5.8 | – | – | – | – | – | – | CN1c2ccc(-c3cnc(N)c(Cl)c3N3CCC4(CCNC4=O)CC3)cc2CS1(=O)=O [Compound 88]
28 | 39 ×10⁻⁶ cm/s | – | – | – | – | – | – | – | Cn1nc(N)c2ccc(-c3cncc(Cl)c3N3CCC4(CCNC4=O)CC3)cc21 [Compound 101, 8-(3-(3-Amino-1-methyl-1H-indazol-6-yl)-5-chloropyridin-4-yl)-2,8-diazaspiro[4.5]decan-1-one 2,2,2-Trifluoroacetate]
29 | 6.7 ×10⁻⁶ cm/s | – | 1.84 L/kg | 71.2 mL/min/kg | – | 5% | 8 µg/mL | – | Cn1cc(-c2ccc(-c3cncc(Cl)c3N3CCC4(CC3)NC(=O)CNC4=O)cc2)cn1 [Compound 48]
30 | 4 ×10⁻⁶ cm/s | 81 | – | – | – | – | – | – | CN1c2ccc(-c3cnc(N)c(F)c3N3CCC4(CC3)CNC(=O)O4)cc2CS1(=O)=O [Compound 93]
31 | 28.8 ×10⁻⁶ cm/s | – | – | – | – | – | – | – | CNc1n[nH]c2cc(-c3cncc(Cl)c3N3CCC4(CCNC4=O)CC3)ccc12 [Compound 100, 8-(3-Chloro-5-(3-(methylamino)-1H-indazol-6-yl)pyridin-4-yl)-2,8-diazaspiro[4.5]decan-1-one]
32 | 34.3 ×10⁻⁶ cm/s | 1.7 | – | – | – | – | – | – | COCCN1CCCC12CCN(c1c(Cl)cncc1-c1ccc3c(c1)CS(=O)(=O)N3C)CC2 [Compound 54, 5-(5-Chloro-4-(1-(2-methoxyethyl)-1,8-diazaspiro[4.5]decan-8-yl)pyridin-3-yl)-1-methyl-1,3-dihydrobenzo[c]isothiazole 2,2-Dioxide]
33 | 45.9 ×10⁻⁶ cm/s | – | – | – | – | – | – | – | CN(C)c1nn(C)c2cc(-c3cncc(Cl)c3N3CCC4(CCNC4=O)CC3)ccc12 [Compound 102, 8-(3-Chloro-5-(3-(dimethylamino)-1-methyl-1H-indazol-6-yl)pyridin-4-yl)-2,8-diazaspiro[4.5]decan-1-one]
34 | 29 ×10⁻⁶ cm/s | 3.3 | – | – | – | – | – | – | CN1c2ccc(-c3cncc(Cl)c3N3CCC4(CCNC4=O)CC3)cc2CS1(=O)=O [Compound 23, 8-(3-Chloro-5-(1-methyl-2,2-dioxido-1,3-dihydrobenzo[c]isothiazol-5-yl)pyridin-4-yl)-2,8-diazaspiro[4.5]decan-1-one]
35 | 37.4 ×10⁻⁶ cm/s | – | – | – | – | – | – | – | CC(C)n1cc(-c2ccc(-c3cnc(N)c(Cl)c3N3CCC4(CCNC4=O)CC3)cc2)cn1 [Compound 108]
36 | 19.1 ×10⁻⁶ cm/s | – | 1.12 L/kg | 51.2 mL/min/kg | – | 20% | – | – | Cn1cc(-c2ccc(-c3cncc(Cl)c3N3CCC4(CC3)NCNC4=O)cc2)cn1 [Compound 44]

— article PMC5362750, “Discovery of Potent, Selective, and Orally Bioavailable Small-Molecule Modulators of the Mediator Complex-Associated Kinases CDK8 and CDK19” (Journal of Medicinal Chemistry, 2016)
